Results: US11286258B2, “Nature-inspired anticancer and antibacterial motifs and pharmaceutical composition thereof” (University of Sharjah, priority 2020, dated 2022)
Values after ≈ are worked out from the molar mass of the structure shown.

Legend:
MRSA-ATCC33591 = experiment: MIC broth microdilution, MRSA ATCC33591; assay type: cell-based, Staphylococcus aureus; settings: Staphylococcus aureus; overnight incubation, Mueller-Hinton broth; read-out: MIC MRSA-ATCC33591
Experimental: (§1) Antibacterial activity: The compounds were tested for the minimum inhibitory concentrations (MIC), which is the lowest concentration of a chemical required to inhibit visible microbial growth following overnight incubation. MIC values were determined using broth microdilution method according to the Clinical and Laboratory Standards Institute guidelines (CLSI, 2015, M07-A10). Mueller-Hinton broth was used as a culture medium in all the experiments. Exponentially growing bacterial cells were prepared in Mueller-Hinton broth at a concentration of approximately 5×10^5 CFU/mL. Two-fold serial dilutions of the test compound (8 concentrations ranged between 100-0.78 μg/mL) were tested. […] In each experiment, solvent (DMSO) was used as a negative control, un-treated control (composing of bacteria in Mueller-Hinton broth) was used as a growth control, blank (culture media alone) was used as sterility control. The 96-well microplate with the test compounds was incubated overnight at 37° C. Turbidity in wells indicated bacterial growth.
(§2) The compounds were tested on six MDR Gram-positive bacteria including three clinical isolates of methicillin-resistant Staphylococcus aureus (MRSA-1, MRSA-2 and MRSA-3) and three reference MRSA strains (ATCC33591, ATCC33592 and ATCC700699). They were also tested on three MDR Gram-negative bacteria including New Delhi metallo-beta-lactamase (NDM-1) positive, carbapenem-resistant E. coli (ATCC BAA2469), extended-spectrum beta-lactamase (ESBL) producing, colistin-resistant E. coli (CDC-AR-0346) and carbapenem-resistant Acinetobacter baumannii (ATCC BAA1605), in addition to two non-MDR bacteria from the same species, namely E. coli (ATCC 25922) Acinetobacter baumannii (ATCC 19606).

MRSA-ATCC700699 (VISA) = experiment: MIC broth microdilution, MRSA ATCC700699 (VISA); assay type: cell-based, Staphylococcus aureus; settings: Staphylococcus aureus; strain intermediately resistant to vancomycin; overnight incubation; read-out: MIC MRSA-ATCC700699 (VISA)
Experimental: as §1, §2

MCF-7 = experiment: MTT cell viability, MCF-7; assay type: cell-based; settings: Homo sapiens, MCF7; breast cancer; 48 h of drug treatment; average of three experiments
From the text: (§3) Cell culture: In this study five different cancer cell lines were used, human lung carcinoma (A549), human breast adenoma (MCF-7), Cervical carcinoma (Hela), hepatocellular carcinoma (Hep3B), and colorectal adenocarcinoma (HCT-116). These cells were obtained from the European Collection of Cell Cultures (ECACC, UK). Hep3B cells were maintained in Dulbecco's Modified Eagle Medium (DMEM: Sigma-Aldrich), and the four other cell lines were maintained in Roswell Park Memorial Institute medium (RPMI, Sigma-Aldrich, St. Louis, Mo., USA), which was supplemented with 10% fetal bovine serum (FBS, Sigma-Aldrich) and 1% penicillin/streptomycin (Sigma-Aldrich). Cells were incubated all the time at 37° C. in a humidified atmosphere of 5% CO2. Cell viability studies: Cell viability was assessed using the MTT assay as described before. In brief, all cancer cell lines were seeded at a density of 4×10^4/well in 96 well flat-bottom plates. After 24 h from seeding, cells were treated with the synthesized compounds and left for an incubation period of 48 h. Upon reaching the indicated time point, the media was removed and replaced with 200 μL fresh media containing 0.5 mg/mL of MTT tetrazolium dye (Sigma-Aldrich). Cells were then incubated with MTT solution for 2 h at 37° C. The resultant formazan crystals were dissolved in 200 μl/well of DMSO and absorbance was measured at 570 nm using a microplate reader (Thermo Scientific).

[1] = tested on: MRSA-1 (clinical isolate); experiment: MIC broth microdilution, MRSA-1; assay type: cell-based, Staphylococcus aureus; settings: Staphylococcus aureus, MRSA; overnight incubation, Mueller-Hinton broth; read-out: MIC MRSA-1 (clinical isolate)
Experimental: as §1, §2

HCT-116 = experiment: MTT cell viability, HCT-116; assay type: cell-based; settings: Homo sapiens, colon cancer, 48 h of drug treatment, average of three experiments
From the text: as §3

[2] = tested on: E. coli CDC-AR-0346 (ESBL, colistin resistant); experiment: MIC broth microdilution, E. coli CDC-AR-0346; assay type: cell-based, Escherichia coli; settings: Escherichia coli; MDR; overnight incubation
Experimental: as §1, §2

[3] = tested on: MRSA-3 (clinical isolate); experiment: MIC broth microdilution, MRSA-3; assay type: cell-based, Staphylococcus aureus; settings: Staphylococcus aureus, MRSA; overnight incubation, Mueller-Hinton broth; read-out: MIC MRSA-3 (clinical isolate)
Experimental: as §1, §2

[4] = tested on: Acinetobacter baumannii ATCC 19606; experiment: MIC broth microdilution, A. baumannii ATCC 19606; assay type: cell-based; settings: Acinetobacter baumannii, ATCC19606; not MDR; overnight incubation
Experimental: as §1, §2

MRSA-ATCC33592 = experiment: MIC broth microdilution, MRSA ATCC33592; assay type: cell-based, Staphylococcus aureus; settings: Staphylococcus aureus; overnight incubation, Mueller-Hinton broth; read-out: MIC MRSA-ATCC33592
Experimental: as §1, §2

[5] = tested on: normal epithelial cells (HMEC); experiment: Cell viability, normal epithelial cells; assay type: cell-based; settings: Homo sapiens, 48 h of drug treatment, average of three experiments
Experimental: Cell viability studies: Cell viability was assessed using the MTT assay as described before. In brief, all cancer cell lines were seeded at a density of 4×10^4/well in 96 well flat-bottom plates. After 24 h from seeding, cells were treated with the synthesized compounds and left for an incubation period of 48 h. Upon reaching the indicated time point, the media was removed and replaced with 200 μL fresh media containing 0.5 mg/mL of MTT tetrazolium dye (Sigma-Aldrich). Cells were then incubated with MTT solution for 2 h at 37° C. The resultant formazan crystals were dissolved in 200 μl/well of DMSO and absorbance was measured at 570 nm using a microplate reader (Thermo Scientific).

[6] = tested on: E. coli ATCC BAA2469 (NDM-1 carbapenem-resistant); experiment: MIC broth microdilution, E. coli ATCC BAA2469; assay type: cell-based, Escherichia coli; settings: overnight incubation; for MIC: Escherichia coli, ATCCBAA2469, MDR
Experimental: as §1, §2

HELA = experiment: MTT cell viability, HELA; assay type: cell-based; settings: Homo sapiens, cervical cancer, 48 h of drug treatment, average of three experiments
From the text: as §3

[7] = tested on: Acinetobacter baumannii ATCC BAA1605 (carbapenem-resistant); experiment: MIC broth microdilution, A. baumannii ATCC BAA1605; assay type: cell-based; settings: overnight incubation; for MIC: Acinetobacter baumannii, ATCCBAA1605, MDR
Experimental: as §1, §2

E. coli ATCC25922 = experiment: MIC broth microdilution, E. coli ATCC25922; assay type: cell-based, Escherichia coli; settings: Escherichia coli, ATCC25922; not MDR; overnight incubation
Experimental: as §1, §2

HEP3B = experiment: MTT cell viability, HEP3B; assay type: cell-based; settings: Homo sapiens, liver cancer, 48 h of drug treatment, average of three experiments
From the text: as §3

A549 = experiment: MTT cell viability, A549; assay type: cell-based; settings: Homo sapiens, lung cancer, 48 h of drug treatment, average of three experiments
From the text: as §3

[8] = tested on: MRSA-2 (clinical isolate); experiment: MIC broth microdilution, MRSA-2; assay type: cell-based, Staphylococcus aureus; settings: Staphylococcus aureus, MRSA; overnight incubation, Mueller-Hinton broth; read-out: MIC MRSA-2 (clinical isolate)
Experimental: as §1, §2

Compound	MIC (MRSA-ATCC33591) [µg/mL]	MIC (MRSA-ATCC700699 (VISA)) [µg/mL]	IC50 (MCF-7) [µM]	MIC [1] [µg/mL]	IC50 (HCT-116) [µM]	MIC [2] [µg/mL]	MIC [3] [µg/mL]	MIC [4] [µg/mL]	MIC (MRSA-ATCC33592) [µg/mL]	MIC [6] [µg/mL]	MIC E. coli ATCC BAA2469 (NDM-1 carbapenem-resistant) ([6]; MDR) [µg/mL]	IC50 (HELA) [µM]	MIC [7] [µg/mL]	MIC (E. coli ATCC25922) [µg/mL]	IC50 (HEP3B) [µM]	IC50 (A549) [µM]	MIC [8] [µg/mL]	MIC Acinetobacter baumannii ATCC BAA1605 (carbapenem-resistant) ([7]; MDR) [µg/mL]	IC50 [5] [µM]
Oc1ccc2c(c1)c1c3n2[C@@]2(C=C/C(=N\Nc4ccc(C(F)(F)F)cc4)CC2)CC[C@@H]3NCC1 [Compound 1i]	3.12 (≈ 6.7 µM)	1.56 (≈ 3.34 µM)	5.61 ± 0.08	1.56 (≈ 3.34 µM)	5.177 ± 0.02	25 (≈ 53.6 µM)	3.12 (≈ 6.7 µM)	6.25 (≈ 13.4 µM)	3.12 (≈ 6.7 µM)	6.25 to 12.5 (≈ 13.4 to 26.8 µM)	12.5 (≈ 26.8 µM)	4.08 ± 0.12	12.5 (≈ 26.8 µM)	12.5 (≈ 26.8 µM)	5.132 ± 0.04	8.607 ± 0.02	3.12 (≈ 6.7 µM)		12.7 ± 0.05
FC(F)(F)c1ccc(N/N=C2\C=C[C@@]3(CC2)CC[C@@H]2NCCc4c2n3c2ccc(OCc3ccccc3)cc42)cc1 [Compound 1l]	3.12 (≈ 5.61 µM)	3.12 (≈ 5.61 µM)		1.56 (≈ 2.8 µM)			3.12 (≈ 5.61 µM)		3.12 (≈ 5.61 µM)								3.12 (≈ 5.61 µM)		
COc1ccc2c3c4n(c2c1)[C@@]1(C=C/C(=N\Nc2ccc(C(F)(F)F)cc2)CC1)CC[C@@H]4NCC3 [Compound 1j]	3.12 (≈ 6.5 µM)	3.12 (≈ 6.5 µM)	3 ± 2.4	1.56 (≈ 3.25 µM)	2.3 ± 0.04		3.12 (≈ 6.5 µM)		3.12 (≈ 6.5 µM)			4.601 ± 0.03			2.88 ± 0.14	5.61 ± 0.12	3.12 (≈ 6.5 µM)		10.77 ± 0.05
CO/N=C(\C(=O)N[C@@H]1C(=O)N2C(C(=O)O)=C(COC(C)=O)CS[C@H]12)c1csc(N)n1 [Cefotaxime]						> 1000		20 (≈ 43.9 µM)		250 (≈ 549 µM)			≥ 1000	0.03 (≈ 0.0659 µM)				1000 (≈ 2200 µM)	

More lines, main results first:

MIC (MRSA-ATCC33591) [µg/mL]	MIC (MRSA-ATCC700699 (VISA)) [µg/mL]	IC50 (MCF-7) [µM]	MIC [1] [µg/mL]	IC50 (HCT-116) [µM]	MIC [2] [µg/mL]	MIC [3] [µg/mL]	MIC [4] [µg/mL]	MIC (MRSA-ATCC33592) [µg/mL]	MIC [6] [µg/mL]	MIC E. coli ATCC BAA2469 (NDM-1 carbapenem-resistant) ([6]; MDR) [µg/mL]	IC50 (HELA) [µM]	MIC [7] [µg/mL]	MIC (E. coli ATCC25922) [µg/mL]	IC50 (HEP3B) [µM]	IC50 (A549) [µM]	MIC [8] [µg/mL]	MIC Acinetobacter baumannii ATCC BAA1605 (carbapenem-resistant) ([7]; MDR) [µg/mL]	Compound	IC50 [5] [µM]
		6.22 ± 0.16		6.43 ± 0.03							> 10			8 ± 0.07	10.25 ± 0.08			Fc1ccc(N/N=C2\C=C[C@@]3(CC2)CC[C@@H]2NCCc4c2n3c2ccccc42)cc1 [Compound 1b]	
6.25 (≈ 13.5 µM)	6.25 (≈ 13.5 µM)	2.75 ± 0.06	3.12 (≈ 6.77 µM)	2.65 ± 0.05		3.12 (≈ 6.77 µM)		6.25 (≈ 13.5 µM)			5.3 ± 0.35			4.21 ± 0.06	3.9 ± 0.04	3.12 (≈ 6.77 µM)		Brc1ccc(N/N=C2\C=C[C@@]3(CC2)CC[C@@H]2NCCc4c2n3c2ccccc42)cc1 [Compound 1c]	
